Series [1] deals with carrageenin-induced foot edema. The series can be described thus: Inhibition of carrageenin-induced foot edema (C.E.). The class given is in vivo, rats. Particulars: Rattus norvegicus, read-out: percent inhibition, C.E.
Series [2] relates to adjuvant-induced arthritis. The series can be described thus: Inhibition of adjuvant-induced arthritis (A.A.). Type of series: in vivo. The following applies: Rattus norvegicus, oral, rats, read-out: percent inhibition, A.A.; for inhibition in vivo at 80 µmol/kg: .08 millimoles/kg.
The subject of series [3] is histamine induced bronchoconstriction. Nature of the series: Histamine induced bronchoconstriction test in anesthetized dogs. Type of series: in vivo. Particulars: intraduodenally; for ED40: Canis lupus familiaris, intraduodenal, read-out: AED40 (Approximate Effective Dose resulting in 40% inhibition of bronchoconstriction).
In series [4] the test system is acetylcholine-induced abdominal constriction. Nature of the series: Acetylcholine-induced abdominal constriction test (Ach). Particulars: Mus musculus, po. The class given is in vivo, mice.
Series [5] is described as follows: Toxicity observations in the carrageenin edema test. Type of series: in vivo. Particulars: C.E. test, .324 millimoles/kg, oral, rats; for dead: animals dead. As for the experimental part: Anti-inflammatory activity was determined using (1) the inhibition of carrageenin-induced foot edema test described by Winter et al., Proc. Soc. […] Therap. […] J. Vet.
All data were obtained on oral administration in rats.

For series [6], the system named is passive cutaneous anaphylaxis. Nature of the series: Passive cutaneous anaphylaxis test (PCA). Type of series: in vivo. The arrangement: key: Actv.: active; Weak: weakly active; Inac.: inactive. The following applies: rats.
For series [7], the system named is human basophils. The series can be described thus: In vitro histamine release from human basophils test. The class given is cell-based. Particulars: for EC50: read-out: AEC50 (Approximate Effective Concentration resulting in 50% inhibition of allergic release of histamine).
In series [8] the test system is guinea pig tracheal contractions by carbachol. Nature of the series: Relaxation of guinea pig tracheal contractions by carbachol. Particulars: guinea pig trachea, read-out: EC50 (effective concentration to produce 50% relaxation), Carb.
Series [9] concerns guinea pig tracheal contractions by barium. Nature of the series: Relaxation of guinea pig tracheal contractions by barium. Particulars: guinea pig trachea.

Structures can show the parent of a compound that is named as a salt. Where two headings read alike, the source gives them in different places. Where only a bound is given, the exact number is not on record here.

As to `CC(c1cccc(C(=O)c2ccccc2)c1)N1CCCCC1CN1CCCCC1` (stereo not shown) [Example 4D, 1-[1-(3-Benzoylphenyl)ethyl]-2-(1-piperidinylmethyl)piperidine dihydrochloride monohydrate], the inhibition in vivo at 80 µmol/kg in series [1] (.08 millimoles/kg, oral, rats) stood at 27%. Besides, the inhibition in vivo at 324 µmol/kg in series [1] (.324 millimoles/kg, oral, rats) worked out at 59%; in series [2] (.324 millimoles/kg), 56%.

The ED50 is the dose at which the effect has come halfway, by size or by number of responders. With `CC(CN1CCC(N)CC1)c1ccc(C(=O)c2ccccc2)cc1.Cl.Cl` (stereo not shown) [Example 5A, 1-[2-(4-benzoylphenyl)propyl]-4-aminopiperidine-dihydrochloride], the “AED40 (Approximate Effective Dose resulting in 40% inhibition of bronchoconstriction)” value in [3] is “Inac”. This compound registered an ED50 in [4] of 42 mg/kg.

Take `CCC(=O)NC1CCN(CC(C)c2ccc(C(=O)c3ccccc3)cc2)CC1` (stereo not shown) [Example 6E, 1-[2-(4-Benzoylphenyl)propyl]-4-propionylaminopiperidine]: the ED40 in series [3] is 30 mg/kg.

For the compound `CC(C(=O)N1CCC(CN2CCCCC2)CC1)c1cccc(C(=O)c2ccccc2)c1` (stereo not drawn) [Example 1A, 1-[α-(3-benzoylphenyl)propionyl]-4-(1-piperidinylmethyl)piperidine], the inhibition in vivo at 80 µmol/kg in series [1] (.08 millimoles/kg, oral, rats) stood at 14%. Further, in [5], the “Toxic (result in words)” value was “Toxic” and the dead is listed as 6/8.

On to `CC(c1cccc(C(=O)c2ccccc2)c1)N1CCCC(CN2CCOCC2)C1` (stereo not shown) [Example 4C, 1-[1-(3-Benzoylphenyl)ethyl]-3-(4-morpholinylmethyl)piperidine dihydrochloride monohydrate], for which the inhibition in vivo at 80 µmol/kg in series [1] (.08 millimoles/kg, oral, rats) is 0%. Besides, the inhibition in vivo at 324 µmol/kg in series [1] (.324 millimoles/kg, oral, rats) was found to be 55%.

In the case of `CC(C(=O)N1CCC(CN2CCOCC2)CC1)c1cccc(C(=O)c2ccccc2)c1` (stereo not drawn) [Example 1C, 1-[α-(3-Benzoylphenyl)propionyl]-4-(4-morpholinylmethyl)piperidine hydrochloride], the inhibition in vivo at 80 µmol/kg in [1] (.08 millimoles/kg, oral, rats) was 18%; in [2] it was 30%. Moreover, the inhibition in vivo at 324 µmol/kg in [1] (.324 millimoles/kg, oral, rats) was 61%.

For the compound `CC(C(=O)N1CCCCC1CN1CCOCC1)c1cccc(C(=O)c2ccccc2)c1` (stereo not drawn) [Example 1B, 1-[α-(3-Benzoylphenyl)propionyl]-2-(4-morpholinylmethyl)piperidine hydrochloride], the inhibition in vivo at 80 µmol/kg came to 9% in [1] (.08 millimoles/kg, oral, rats) and 0% in series [2]. The inhibition in vivo at 324 µmol/kg in [1] (.324 millimoles/kg, oral, rats) worked out at 67%.

Regarding `CCCC(=O)NC1CCN(CC(C)c2ccc(C(=O)c3ccccc3)cc2)CC1` (stereo not shown) [Example 6B, 1-[2-(4-Benzoylphenyl)propyl]-4-butyrylaminopiperidine], the “PCA activity (qualitative statement)” value in series [6] is “Inac”. Moreover, the inhibition in vivo at 80 µmol/kg in series [1] (.08 millimoles/kg, oral, rats) worked out at 54%. Moreover, the inhibition in vivo at 324 µmol/kg in series [1] (.324 millimoles/kg, oral, rats) is 63%. Also, the inhibition in vivo at 40 µmol/kg in series [2] (.04 millimoles/kg) worked out at 38%. Further, the EC50 in series [7] is > 100000 nM. Further, the ED40 in series [3] is 2 mg/kg. In series [4], this compound had a median effective dose (ED50) of 16 mg/kg.

As for `CC(c1cccc(C(=O)c2ccccc2)c1)N1CCC(CN2CCOCC2)CC1` (stereo not shown) [Example 4A, 1-[1-(3-benzoylphenyl)ethyl]-4-(4-morpholinylmethyl)piperidine], in [6], the “PCA activity (qualitative statement)” value is “Actv”. In addition, the inhibition in vivo at 80 µmol/kg in [1] (.08 millimoles/kg, oral, rats) amounted to 0%. Further, the inhibition in vivo at 324 µmol/kg in series [1] (.324 millimoles/kg, oral, rats) is 38%. For the same compound, the ED40 in series [3] was > 30 mg/kg.

`CC(CN1CCC(N2CCCCC2)CC1)c1cccc(C(=O)c2ccccc2)c1.Cl.Cl` (stereo not shown) [Example 3B, 1-[2-(3-Benzoylphenyl)propyl]-4-(1-piperidinyl)piperidine dihydrochloride]: in series [1] (.08 millimoles/kg, oral, rats), the inhibition in vivo at 80 µmol/kg came out at 67%. The inhibition in vivo at 324 µmol/kg in series [1] (.324 millimoles/kg, oral, rats) is 74%. Besides, in [5] (animals affected), the ataxic was 1/8 and the hypothermia is 8/8. Also, the dead in series [5] was 1/8. Further, in series [4], the 50% effective dose (ED50) is 7.4 mg/kg.

On to `CC(CN1CCC(NC(=O)C2CCCCC2)CC1)c1ccc(C(=O)c2ccccc2)cc1` (stereo not shown) [Example 6I, 1-[2-(4-Benzoylphenyl)propyl]-4-cyclohexanecarbonylaminopiperidine], for which the EC50 in series [8] was determined as 2600 nM. Also, the “Ba (active or inactive)” value in [9] was “Active”.

With `CC(=O)NC1CCN(CC(C)c2ccc(C(O)c3ccccc3)cc2)CC1` (stereo not drawn) [Example 7, 1-[2-(α-hydroxy-4-benzylphenyl)propyl]-4-acetylaminopiperidine], the EC50 in series [8] amounted to 2900 nM. The “Ba (active or inactive)” value in series [9] is “Slightly Active”.

As to `CC(=O)N(C)C1CCN(CC(C)c2ccc(C(=O)c3ccccc3)cc2)CC1.Cl` (stereo not shown) [Example 3G, 1-[2-(4-Benzoylphenyl)propyl]-4-(N-acetyl-N-methylamino)piperidine hydrochloride], in series [8], the EC50 stood at 340 nM. Besides, the “Ba (active or inactive)” value in series [9] was “Inact”.

Turning to `CC(C(=O)N1CCCCC1CN1CCCCC1)c1cccc(C(=O)c2ccccc2)c1` (stereo not drawn) [Example 1E, 1-[α-(3-Benzoylphenyl)propionyl]-2-(1-piperidinylmethyl)piperidine], in series [1] (po), the inhibition in vivo at 80 µmol/kg turned out to be 11% and the inhibition in vivo at 324 µmol/kg was found to be 67%.

For the compound `CC(CN1CCC(NC(=O)C2CC2)CC1)c1ccc(C(=O)c2ccccc2)cc1` (stereo not shown) [Example 6A, 1-[2-(4-benzoylphenyl)propyl]-4-cyclopropanecarbonylaminopiperidine], the “PCA activity (qualitative statement)” value in series [6] is on record as “Weak”. For the same compound, the inhibition in vivo at 80 µmol/kg in series [1] (.08 millimoles/kg, oral, rats) was 72%. In series [1] (.324 millimoles/kg, oral, rats), the inhibition in vivo at 324 µmol/kg amounted to 77%. Further, the “AEC50 (Approximate Effective Concentration resulting in 50% inhibition of allergic release of histamine)” value in series [7] is “Inac”. For the same compound, the ED40 in series [3] turned out to be 7.3 mg/kg. In series [4], this compound came in with a median effective dose (ED50) of 16 mg/kg.

For the compound `CC(CN1CCC(N2CCCCC2)CC1)c1ccc(C(=O)c2ccccc2)cc1` (stereo not shown) [Example 3D, 1-[2-(4-Benzoylphenyl)propyl]-4-(1-piperdinyl)piperidine dihydrochloride], the “PCA activity (qualitative statement)” value in series [6] is “Inac”. Besides, the inhibition in vivo at 80 µmol/kg worked out at 42% in series [1] (.08 millimoles/kg, oral, rats) and 86% in series [2]. For the same compound, in series [1] (.324 millimoles/kg, oral, rats), the inhibition in vivo at 324 µmol/kg amounted to 46%. In series [7], the EC50 is 90000 nM. Also, the “AED40 (Approximate Effective Dose resulting in 40% inhibition of bronchoconstriction)” value in series [3] is “Inac”. Also, the ED50 in series [4] stood at 29 mg/kg.

Turning to `CC(C(=O)N1CCCC(CN2CCCCC2)C1)c1cccc(C(=O)c2ccccc2)c1` (stereo not drawn) [Example 1F, 1-[α-(3-Benzoylphenyl)propionyl]-3-(1-piperidinylmethyl)piperidine hydrochloride], the “PCA activity (qualitative statement)” value in [6] is given as “Actv”. In series [1] (.08 millimoles/kg, oral, rats), the inhibition in vivo at 80 µmol/kg worked out at 20%. Also, in series [5], the “Toxic (result in words)” value is recorded as “Toxic” and the dead is 5/8.

In the case of `CC(c1cccc(C(=O)c2ccccc2)c1)N1CCCCC1CN1CCOCC1.Cl.Cl` (stereo not shown) [Example 4B, 1-[1-(3-Benzoylphenyl)ethyl]-2-(4-morpholinylmethyl)piperidine dihydrochloride], the inhibition in vivo at 80 µmol/kg in series [1] (.08 millimoles/kg, oral, rats) came to 16%. In series [1] (.324 millimoles/kg, oral, rats), the inhibition in vivo at 324 µmol/kg came to 48%. Further, the convulsions in [5] (animals affected at 15 min.) was 2/8.

For the compound `CC(C(=O)N1CCCC(CN2CCOCC2)C1)c1cccc(C(=O)c2ccccc2)c1.Cl` (stereo not drawn) [Example 1D, 1-[α-(3-Benzoylphenyl)propionyl]-3-(4-morpholinylmethyl)piperidine hydrochloride], the “PCA activity (qualitative statement)” value in [6] was “Actv”. The inhibition in vivo at 80 µmol/kg in series [1] (.08 millimoles/kg, oral, rats) was 0%; in series [2] it was 37%. The inhibition in vivo at 324 µmol/kg in [1] (.324 millimoles/kg, oral, rats) came out at 65%.

For `CC(CN1CCC(NC(=O)c2ccccc2)CC1)c1ccc(C(=O)c2ccccc2)cc1` (stereo not shown) [Example 6C, 1-[2-(4-Benzoylphenyl)propyl]-4-benzoylaminopiperidine], the inhibition in vivo at 80 µmol/kg was determined as 50% in series [1] (.08 millimoles/kg, oral, rats) and 51% in series [2]. The inhibition in vivo at 324 µmol/kg in series [1] (.324 millimoles/kg, oral, rats) stood at 57%. The same compound registered an ED50 in series [4] of 23 mg/kg.

For the origin of these results see patent US4339576A, “Anti-asthmatic, anti-allergic, anti-cholinergic, bronchodilator and anti-inflammatory 1-[(benzoylphenyl)-lower-alkyl]piperidines and analogs thereof” (Sterling Drug Inc., priority 1981, dated 1982).
